The target of this test is T1, Regulator of G-protein signaling 19 (Homo sapiens, UniProt P49795).
T1 sequence (P49795 whole entry): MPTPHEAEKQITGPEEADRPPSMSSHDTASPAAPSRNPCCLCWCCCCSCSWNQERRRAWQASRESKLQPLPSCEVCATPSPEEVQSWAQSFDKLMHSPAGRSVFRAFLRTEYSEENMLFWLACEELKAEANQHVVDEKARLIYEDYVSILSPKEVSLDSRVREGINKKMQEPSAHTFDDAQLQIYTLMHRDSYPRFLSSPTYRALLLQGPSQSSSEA
Kind of test: analogs regulating RGS19 interaction with Gαo – biochemical, SAR compounds, multiplexed bead flow cytometry, SAR follow-up (AID 2311). (In flow cytometry, cells or beads pass a laser one at a time.)

Usually EC50 stands for the concentration at which the effect is half-maximal. As to `CCN(CC)S(=O)(=O)c1cccc(C(=O)NN=Cc2ccc(O)c(O)c2O)c1`, the concentration giving a half-maximal response (EC50) is > 30000 nM. Take `Cc1cccc(N2CCN(C(=O)Cn3sc4nc(C)cc(C)c4c3=O)CC2C)c1` (stereo unspecified) [2-[2-keto-2-[3-methyl-4-(m-tolyl)piperazino]ethyl]-4,6-dimethyl-isothiazolo[5,4-b]pyridin-3-one]: the EC50 amounted to 100 nM. Still for that read-out and setting: with `Cc1[nH]n(-c2ccccc2)c(=S)c1C=NCCCN=Cc1c(C)[nH]n(-c2ccccc2)c1=S` the figure was 56 nM; with `CCC(=O)NC(c1ccc(C)cc1)c1cc([N+](=O)[O-])c2cccnc2c1O` (stereo unspecified) [MLS000553854], 1240 nM.

For the molecule `CN1CCN(C2=C(Cl)C(=O)C(c3cnc(N4CCCCC4)s3)=C(Cl)C2=O)CC1`, a half-maximal effect (EC50) was put at 27 nM. In turn, `Cc1cc(Cl)ccc1/N=c1/ssnc1Cl` [MLS000539990] displayed a concentration for a half-maximal effect (EC50) of 115 nM.

Consider `CCN(CC)S(=O)(=O)c1cccc(-c2n[nH]c(=S)n2N=Cc2ccc(C(=O)OC)cc2)c1` [4-[(E)-[3-[3-(diethylsulfamoyl)phenyl]-5-thioxo-1H-1,2,4-triazol-4-yl]iminomethyl]benzoic acid methyl ester], for which the 50% effective concentration (EC50) was > 30000 nM. Regarding `CC(NC(=O)c1sc2cc([N+](=O)[O-])ccc2c1Cl)C(C)(C)C` (stereo unspecified) [3-chloranyl-N-(3,3-dimethylbutan-2-yl)-6-nitro-1-benzothiophene-2-carboxamide], the EC50 is > 30000 nM. Still for that read-out and setting: with `Cc1[nH]n(-c2ccccc2)c(=S)c1/C=N/c1cccc([N+](=O)[O-])c1` [(4E)-5-methyl-4-[(3-nitroanilino)methylene]-2-phenyl-2-pyrazoline-3-thione] the figure was > 30000 nM; with `Cc1cccc(N2CCN(C(=O)COc3nsc4nc(C)cc(C)c34)CC2C)c1` (stereo unspecified), 590 nM. `CCOc1ccccc1-c1c2cc(O)c(=O)cc-2oc2cc(O)c(O)cc12` [MLS000578271]: the EC50 (inactive by the depositor's call) stood at 4690 nM. As to `CN=c1scc(C)n1N=Cc1ccc(O)c(O)c1O` [(4E)-2,3-dihydroxy-4-[[(4-methyl-2-methylimino-1,3-thiazol-3-yl)amino]methylidene]cyclohexa-2,5-dien-1-one], a half-maximal effect (EC50) was put at 209 nM. As for `O=c1c2ccccc2sn1-c1ccccc1` [2-phenyl-1,2-benzothiazol-3-one], the concentration giving a half-maximal response (EC50) was > 30000 nM. `O=C(NCCCN1CCOCC1)c1sc2cc([N+](=O)[O-])ccc2c1Cl` [3-chloranyl-N-(3-morpholin-4-ylpropyl)-6-nitro-1-benzothiophene-2-carboxamide] returned an EC50 of 488 nM. `NS(=O)(=O)c1ccc(N=NCc2ccc(O)c(O)c2O)c([N+](=O)[O-])c1` [4-[[(E)-(2,3-dihydroxy-4-oxo-1-cyclohexa-2,5-dienylidene)methyl]hydrazo]-3-nitrobenzenesulfonamide] gave an EC50 of 109 nM.

On to `CC(=O)OCCCNc1cc(Sc2nc3ccccc3s2)c2nonc2c1[N+](=O)[O-]` [MLS000521052], for which it took 16 nM to reach a half-maximal effect (EC50).

Turning to `O=c1c2ccccc2sn1-c1ccc(S(=O)(=O)N2CCCC2)cc1` [2-(4-pyrrolidin-1-ylsulfonylphenyl)-1,2-benzothiazol-3-one], the concentration giving a half-maximal response (EC50) was > 30000 nM.

Regarding `CCN=c1scc(C)n1N=Cc1ccc(O)c(O)c1O`, a half-maximal effect (EC50) was put at 378 nM. Same read-out and setting: under `O=C(COc1ccccc1C(=O)NN=Cc1ccc(O)c(O)c1)NN=Cc1ccc(O)c(O)c1` [N''-[(Z)-(3-hydroxy-4-oxo-1-cyclohexa-2,5-dienylidene)methyl]-2-[2-[[(Z)-(3-hydroxy-4-oxo-1-cyclohexa-2,5-dienylidene)methyl]hydrazo]-2-oxoethoxy]benzohydrazide] stands > 30000 nM; under `O=C1C(Cl)=C(N2CCCCC2)C(=O)C(Cl)=C1c1cnc(N2CCCCC2)s1` [MLS000550549], 82 nM. Consider `COC(=O)CCC(=O)Nc1sc(C)c(C)c1C(N)=O` [4-[(3-carbamoyl-4,5-dimethyl-2-thienyl)amino]-4-keto-butyric acid methyl ester], for which the EC50 is > 30000 nM. `CCOC(=O)c1sc(NC(=O)CSc2nnc(Cc3ccccc3)o2)c(C#N)c1C` [4-cyano-3-methyl-5-[[1-oxo-2-[[5-(phenylmethyl)-1,3,4-oxadiazol-2-yl]thio]ethyl]amino]-2-thiophenecarboxylic acid ethyl ester] returned an EC50 of 155 nM.

For the molecule `O=C(Cc1csc(N2CCOCC2)n1)NN=Cc1ccc(O)c(O)c1O` [SMR000369439], the concentration giving a half-maximal response (EC50) came out at 794 nM. In the case of `Nc1c(C(=O)NCC2CCCO2)sc2nc3c(c(-c4ccco4)c12)CC/C3=C/c1ccco1` (stereo unspecified) [UNM-0000305796], the EC50 is > 30000 nM. Turning to `COc1ccc(C2=CC(=O)C=CC2=O)cc1` [MLS001029846], it took 169 nM to reach a half-maximal effect (EC50). For `CC1(C)OC(=O)C(=Cc2ccc(-c3ccc(S(N)(=O)=O)cc3)o2)C(=O)O1` [SMR000273939], the concentration for a half-maximal effect (EC50) was 245 nM.

For the origin of these results see BindingDB's records for doi:10.7270/Q2BG2MFK (Nmmlsc, 2010).
